According to ChEMBL document CHEMBL1201862, “PubChem BioAssay data set” (2004):
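In this assay, cells in 96-well plates receive the compound at five concentrations for 48 hours. Endpoints are linearly interpolated between the surrounding concentrations. GI50 marks 50% less growth.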 Activity calls are given as the source filed them. No stated cut-off is given here; in the data, active = GI50 up to about 1.1 µM and inactive = higher.

What was measured:
Assay in all cases: DTP human tumour cell line panel, 48 h
SK-OV-3 = tested on: SK-OV-3
DU-145 = tested on: DU-145
HOP-92 = tested on: HOP-92
MDA-N = tested on: MDA-N
UO-31 = tested on: UO-31
T47D = tested on: T47D
786-0 = tested on: 786-0
SF-268 = tested on: SF-268
SK-MEL-5 = tested on: SK-MEL-5
MCF7 = tested on: MCF7
NCI-H460 = tested on: NCI-H460
SN12C = tested on: SN12C
HCT-116 = tested on: HCT-116
HOP-62 = tested on: HOP-62
CAKI-1 = tested on: CAKI-1
SF-295 = tested on: SF-295
SK-MEL-2 = tested on: SK-MEL-2
A549 = tested on: A549
SR = tested on: SR
M14 = tested on: M14

Measured: GI50

O=c1ccn(CC2(CO)CCCC2)c(=O)[nH]1
inactive: SK-OV-3 > 100 µM | DU-145 > 100 µM | HOP-92 > 100 µM | MDA-N > 100 µM | UO-31 > 100 µM | T47D > 100 µM | 786-0 > 100 µM | SF-268 > 100 µM | SK-MEL-5 > 100 µM | MCF7 > 100 µM | NCI-H460 > 100 µM | SN12C > 100 µM | HCT-116 > 100 µM | HOP-62 > 100 µM | CAKI-1 > 100 µM | SF-295 > 100 µM | SK-MEL-2 > 100 µM | A549 > 100 µM | SR > 100 µM

COC1CCON1C(=O)c1ccccc1 (configuration not stated)
inactive: SK-OV-3 > 10 µM | DU-145 > 10 µM | M14 > 10 µM | MDA-N > 10 µM | UO-31 > 10 µM | T47D > 10 µM | 786-0 > 10 µM | SF-268 > 10 µM | SK-MEL-5 > 10 µM | MCF7 > 10 µM | NCI-H460 > 10 µM | SN12C > 10 µM | HCT-116 > 10 µM | HOP-62 > 10 µM | CAKI-1 > 10 µM | SF-295 > 10 µM | SK-MEL-2 > 10 µM | A549 > 10 µM | SR > 10 µM

O=C(NC(Cc1ccccc1)P(=O)(O)c1ccccc1)OCc1ccccc1 (configuration not stated)
inactive: SK-OV-3 > 100 µM | DU-145 > 100 µM | HOP-92 > 100 µM | M14 > 100 µM | MDA-N > 100 µM | UO-31 > 100 µM | T47D > 100 µM | 786-0 > 100 µM | SF-268 > 100 µM | SK-MEL-5 > 100 µM | MCF7 > 100 µM | NCI-H460 > 100 µM | SN12C > 100 µM | HCT-116 > 100 µM | HOP-62 > 100 µM | CAKI-1 > 100 µM | SF-295 > 100 µM | A549 > 100 µM | SR > 100 µM

O=C(/C=C/c1cccc([N+](=O)[O-])c1)N1CCN(CCOC(c2ccccc2)c2ccccc2)CC1
inactive: SK-OV-3 > 100 µM | DU-145 47.3 µM | HOP-92 16.6 µM | M14 32.9 µM | MDA-N 37.3 µM | UO-31 33.1 µM | T47D 17.9 µM | 786-0 38.2 µM | SK-MEL-5 14.9 µM | MCF7 27.9 µM | NCI-H460 25.9 µM | SN12C 57.5 µM | HCT-116 18.6 µM | HOP-62 > 100 µM | CAKI-1 > 100 µM | SF-295 56.8 µM | A549 45.7 µM | SR 16.1 µM

NNC(=O)CSc1nc2ccccc2c(=O)n1N
inactive: DU-145 > 100 µM | HOP-92 22.5 µM | M14 > 100 µM | MDA-N > 100 µM | UO-31 > 100 µM | T47D > 100 µM | 786-0 19 µM | SF-268 39.9 µM | SK-MEL-5 > 100 µM | MCF7 91.8 µM | NCI-H460 57.1 µM | SN12C 37.8 µM | HCT-116 31.6 µM | CAKI-1 32.8 µM | SF-295 31.4 µM | SK-MEL-2 17.6 µM | A549 > 100 µM | SR > 100 µM

CNC1C(O)C(OC2C(N)CC(N)C(OC3OC(C(C)O)C(O)C(O)C3N)C2O)OCC1(C)O (configuration not stated)
inactive: SK-OV-3 > 100 µM | DU-145 > 100 µM | M14 > 100 µM | MDA-N > 100 µM | UO-31 > 100 µM | T47D > 100 µM | 786-0 > 100 µM | SF-268 > 100 µM | SK-MEL-5 > 100 µM | MCF7 > 100 µM | NCI-H460 > 100 µM | SN12C > 100 µM | HCT-116 > 100 µM | HOP-62 > 100 µM | CAKI-1 > 100 µM | SF-295 > 100 µM | SK-MEL-2 > 100 µM | A549 > 100 µM | SR > 100 µM

CC(C)=NNc1cnnc2ccc([N+](=O)[O-])cc12
inactive: SK-OV-3 > 100 µM | DU-145 > 100 µM | HOP-92 > 100 µM | M14 78 µM | MDA-N 47.2 µM | UO-31 35.2 µM | T47D 65.2 µM | 786-0 51.3 µM | SF-268 > 100 µM | SK-MEL-5 55.3 µM | MCF7 57.8 µM | NCI-H460 33.3 µM | SN12C 36.1 µM | HCT-116 59.6 µM | CAKI-1 52 µM | SF-295 > 100 µM | SK-MEL-2 > 100 µM | A549 > 100 µM | SR 30.3 µM

CCOC(=O)/C=C/[C@@H](CC)O[Si](C(C)C)(C(C)C)C(C)C
inactive: SK-OV-3 > 100 µM | DU-145 > 100 µM | HOP-92 > 100 µM | MDA-N > 100 µM | UO-31 > 100 µM | T47D > 100 µM | 786-0 > 100 µM | SF-268 > 100 µM | SK-MEL-5 > 100 µM | MCF7 90.2 µM | NCI-H460 > 100 µM | HCT-116 > 100 µM | HOP-62 67.6 µM | CAKI-1 > 100 µM | SF-295 48.4 µM | SK-MEL-2 > 100 µM | A549 > 100 µM | SR 74.6 µM

CCOC(=O)c1cnc2oc3ccc(O)cc3c2c1C
inactive: SK-OV-3 53.6 µM | DU-145 > 100 µM | HOP-92 > 100 µM | M14 > 100 µM | MDA-N > 100 µM | T47D 38.5 µM | 786-0 > 100 µM | SK-MEL-5 69.3 µM | MCF7 > 100 µM | NCI-H460 > 100 µM | SN12C > 100 µM | HCT-116 > 100 µM | CAKI-1 67 µM | SF-295 78.7 µM | SK-MEL-2 > 100 µM | A549 > 100 µM | SR 74 µM

C[C@H](CCC(=O)O)[C@H]1CC[C@H]2[C@@H]3[C@@H](O)C[C@@H]4C[C@H](O)CC[C@]4(C)[C@H]3CC[C@]12C [URSODIOL]
inactive: DU-145 > 100 µM | HOP-92 > 100 µM | M14 > 100 µM | MDA-N > 100 µM | UO-31 70 µM | T47D > 100 µM | 786-0 > 100 µM | SF-268 > 100 µM | MCF7 > 100 µM | NCI-H460 > 100 µM | SN12C > 100 µM | HCT-116 > 100 µM | HOP-62 > 100 µM | CAKI-1 > 100 µM | SK-MEL-2 > 100 µM | A549 > 100 µM | SR 25.1 µM

Sc1nnc(Cc2ccc(Cl)cc2)[nH]1
inactive: SK-OV-3 68.5 µM | DU-145 67 µM | HOP-92 16.2 µM | M14 > 100 µM | MDA-N > 100 µM | UO-31 32.4 µM | T47D 29.4 µM | 786-0 61.4 µM | SK-MEL-5 39.6 µM | MCF7 51.9 µM | NCI-H460 50.8 µM | SN12C 78.2 µM | HCT-116 51.4 µM | HOP-62 93.1 µM | CAKI-1 56.2 µM | SF-295 43.7 µM | SK-MEL-2 > 100 µM | A549 44.1 µM | SR 58.6 µM
